The values below come from US20220112187A1, “PYRAZOLOPYRIDINE AMINE COMPOUNDS FOR THE TREATMENT OF AUTOIMMUNE DISEASE” (Hoffmann-La Roche Inc., priority 2018, published 2022).

SMILES strings stand for the structures.

The target of the assay is T1, human TLR7 (Homo sapiens, UniProt Q9NYK1).
T1 sequence (Q9NYK1 27-1049): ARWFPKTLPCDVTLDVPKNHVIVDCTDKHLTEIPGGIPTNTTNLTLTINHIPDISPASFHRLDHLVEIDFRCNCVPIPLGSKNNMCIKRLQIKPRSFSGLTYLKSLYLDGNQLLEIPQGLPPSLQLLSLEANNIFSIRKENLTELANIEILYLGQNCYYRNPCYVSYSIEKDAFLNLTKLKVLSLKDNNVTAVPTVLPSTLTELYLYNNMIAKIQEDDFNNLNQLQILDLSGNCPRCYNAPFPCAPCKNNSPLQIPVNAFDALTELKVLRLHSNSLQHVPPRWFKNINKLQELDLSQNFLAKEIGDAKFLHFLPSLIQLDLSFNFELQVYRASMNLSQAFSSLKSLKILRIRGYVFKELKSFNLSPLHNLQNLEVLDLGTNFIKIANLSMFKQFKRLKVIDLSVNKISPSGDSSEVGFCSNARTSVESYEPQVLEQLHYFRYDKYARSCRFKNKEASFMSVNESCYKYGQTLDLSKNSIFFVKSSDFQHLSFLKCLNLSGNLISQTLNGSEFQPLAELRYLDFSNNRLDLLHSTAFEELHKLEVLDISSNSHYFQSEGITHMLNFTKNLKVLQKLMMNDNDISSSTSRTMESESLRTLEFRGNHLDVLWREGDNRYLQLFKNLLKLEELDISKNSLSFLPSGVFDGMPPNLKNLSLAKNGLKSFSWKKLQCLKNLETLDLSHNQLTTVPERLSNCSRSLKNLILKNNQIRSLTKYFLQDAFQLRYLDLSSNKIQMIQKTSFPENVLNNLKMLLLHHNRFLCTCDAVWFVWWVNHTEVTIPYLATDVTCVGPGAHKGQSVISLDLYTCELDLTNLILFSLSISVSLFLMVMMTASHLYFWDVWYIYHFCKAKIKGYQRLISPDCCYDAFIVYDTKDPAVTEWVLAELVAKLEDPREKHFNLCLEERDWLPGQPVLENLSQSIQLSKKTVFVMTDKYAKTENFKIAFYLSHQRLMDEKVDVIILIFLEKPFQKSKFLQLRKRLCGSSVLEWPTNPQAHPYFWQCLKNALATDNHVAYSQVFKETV
Description: HEK293-Blue-hTLR-7 cells assay (SEAP reporter, R848 stimulation). It is filed as cell-based. The note with it: HEK293-Blue-hTLR7 cells, R848 ligand, 20 hrs incubation. An excerpt: A stable HEK293-Blue-hTLR-7 cell line was purchased from InvivoGen (Cat. #: hkb-htlr7, San Diego, Calif., USA). These cells were originally designed for studying the stimulation of human TLR7 by monitoring the activation of NF-κB. A SEAP (secreted embryonic alkaline phosphatase) reporter gene was placed under the control of the IFN-β minimal promoter fused to five NF-κB and AP-1-binding sites. The SEAP was induced by activating NF-κB and AP-1 via stimulating HEK-Blue hTLR7 cells with TLR7 ligands. Therefore the reporter expression was declined by TLR7 antagonist under the stimulation of a ligand, such as R848 (Resiquimod), for incubation of 20 hrs. The cell culture supernatant SEAP reporter activity was determined using QUANTI-Blue™ kit (Cat. #: rep-qb1, Invivogen, San Diego, Ca, USA) at a wavelength of 640 nm, a detection medium that turns purple or blue in the presence of alkaline phosphatase.
HEK293-Blue-hTLR7 cells were incubated at a density of 250,000˜450,000 cells/mL in a volume of 170 μL in a 96-well plate in Dulbecco's Modified Eagle's medium (DMEM) containing 4.5 g/L glucose, 50 U/mL penicillin, […], […], 2 mM L-glutamine, 10% (v/v) heat-inactivated fetal bovine serum with addition of 20 μL test compound in a serial dilution in the presence of final DMSO at 1% and 10 μL of 20 uM R848 in above DMEM, perform incubation under 37° C. in a CO2 incubator for 20 hrs. Then 20 μL of the supernatant from each well was incubated with 180 μL Quanti-blue substrate solution at 37° C. for 2 hrs and the absorbance was read at 620˜655 nm using a spectrophotometer. The signalling pathway that TLR7 activation leads to downstream NF-κB activation has been widely accepted, and therefore similar reporter assay was modified for evaluating TLR7 antagonist.
In turn, `C[C@@H]1CN(c2ccc(C#N)n3nccc23)C[C@H](CN2CCCC3(CCNC3)C2)O1` (stereo partly drawn) [Example 44, 4-[(2S,6R)-2-(2,7-diazaspiro[4.5]decan-7-ylmethyl)-6-methyl-morpholin-4-yl]pyrazolo[1,5-a]pyridine-7-carbonitrile] gave an IC50 of 240 nM.

In the case of `C[C@@H]1CN(c2ccc(C#N)n3nccc23)C[C@H](CN2CCCC3CNCC32)O1` (stereo partly drawn) [Example 61, 4-[(2S,6R)-2-(2,3,4,4a,5,6,7,7a-octahydropyrrolo[3,4-b]pyridin-1-ylmethyl)-6-methyl-morpholin-4-yl]pyrazolo[1,5-a]pyridine-7-carbonitrile], it took 460 nM to reach half-maximal inhibition (IC50).

Take `C[C@@H]1CN(c2ccc(C#N)n3nccc23)C[C@H](CN2CCC(N)C(F)(F)C2)O1` (stereo partly drawn) [Example 34, 4-[(2S,6R)-2-[(4-amino-3,3-difluoro-1-piperidyl)methyl]-6-methyl-morpholin-4-yl]pyrazolo[1,5-a]pyridine-7-carbonitrile]: it took 87 nM to reach half-maximal inhibition (IC50).

Regarding `C[C@@H]1CN(c2ccc(C#N)n3nccc23)C[C@H](CN2CCN[C@H](c3ccccc3)C2)O1` [Example 38, 4-[(2R,6S)-2-methyl-6-[[(3R)-3-phenylpiperazin-1-yl]methyl]morpholin-4-yl]pyrazolo[1,5-a]pyridine-7-carbonitrile], the half-inhibitory concentration (IC50) came out at 120 nM.

Turning to `C[C@@H]1CN(c2ccc(C#N)n3nccc23)C[C@H](CN2CCCC3NCCCC32)O1` (stereo partly drawn) [Example 64, 4-[(2S,6R)-2-(3,4,4a,5,6,7,8,8a-octahydro-2H-1,5-naphthyridin-1-ylmethyl)-6-methyl-morpholin-4-yl]pyrazolo[1,5-a]pyridine-7-carbonitrile], the IC50 turned out to be 250 nM.

Consider `C[C@@H]1CN(c2ccc(C#N)n3nccc23)C[C@H](CN2CC3CCNCC3C2)O1` (stereo partly drawn) [Example 49, 4-[(2S,6R)-2-(1,3,3a,4,5,6,7,7a-octahydropyrrolo[3,4-c]pyridin-2-ylmethyl)-6-methyl-morpholin-4-yl]pyrazolo[1,5-a]pyridine-7-carbonitrile], for which half-maximal inhibition (IC50) was put at 180 nM.

The compound `C[C@@H]1CN(c2ccc(C#N)n3nccc23)C[C@H](CN2CCC3(CCCNC3)C2)O1` (stereo partly drawn) [Example 25, 4-[(2S,6R)-2-(2,9-diazaspiro[4.5]decan-2-ylmethyl)-6-methyl-morpholin-4-yl]pyrazolo[1,5-a]pyridine-7-carbonitrile] had an IC50 of 110 nM.

`C[C@@H]1CN(c2ccc(C#N)n3nccc23)C[C@H](CN2CC3(CCNC3)CC2=O)O1` (stereo partly drawn) [Example 20, 4-[(2R,6R)-2-methyl-6-[(3-oxo-2,7-diazaspiro[4.4]nonan-2-yl)methyl]morpholin-4-yl]pyrazolo[1,5-a]pyridine-7-carbonitrile] came in with an IC50 of 650 nM.

With `C[C@@H]1CN(c2ccc(C#N)n3nccc23)C[C@H](CN2CCCC3(CCCNC3)C2)O1` (stereo partly drawn) [Example 23, 4-[(2S,6R)-2-(2,8-diazaspiro[5.5]undecan-2-ylmethyl)-6-methyl-morpholin-4-yl]pyrazolo[1,5-a]pyridine-7-carbonitrile], the concentration for half-maximal inhibition (IC50) was determined as 180 nM.

`C[C@@H]1CN(c2ccc(C#N)n3nccc23)C[C@H](CN2CCC3(CCNC3)CC2)O1` [Example 19, 4-[(2S,6R)-2-(2,8-diazaspiro[4.5]decan-8-ylmethyl)-6-methyl-morpholin-4-yl]pyrazolo[1,5-a]pyridine-7-carbonitrile] had an IC50 of 130 nM.

Consider `C[C@@H]1CN(c2ccc(C#N)n3nccc23)C[C@H](CN2C3COCC2CC(N)C3)O1` (stereo partly drawn) [Example 58, 4-[(2S,6R)-2-[(7-amino-3-oxa-9-azabicyclo[3.3.1]nonan-9-yl)methyl]-6-methyl-morpholin-4-yl]pyrazolo[1,5-a]pyridine-7-carbonitrile], for which half-maximal inhibition (IC50) was put at 90 nM.

With `C[C@@H]1CN(c2ccc(C#N)n3nccc23)C[C@H](CN2CC3CCC(C2)N3)O1` [Example 31, 4-[(2S,6R)-2-(3,8-diazabicyclo[3.2.1]octan-3-ylmethyl)-6-methyl-morpholin-4-yl]pyrazolo[1,5-a]pyridine-7-carbonitrile], the half-maximal inhibitory concentration (IC50) was determined as 53 nM.

Take `C[C@@H]1CN(c2ccc(C#N)n3nccc23)C[C@H](CN2CCC(N3CCCCCC3)CC2)O1` [Example 4, 4-[(2S,6R)-2-[[4-(azepan-1-yl)-1-piperidyl]methyl]-6-methyl-morpholin-4-yl]pyrazolo[1,5-a]pyridine-7-carbonitrile]: half-maximal inhibition (IC50) was put at 180 nM.

Compound `C[C@@H]1CN(c2ccc(C#N)n3nccc23)C[C@H](CN2CCC23CNC3)O1` [Example 55, 4-[(2S,6R)-2-(1,6-diazaspiro[3.3]heptan-1-ylmethyl)-6-methyl-morpholin-4-yl]pyrazolo[1,5-a]pyridine-7-carbonitrile] displayed an IC50 of 540 nM.

Consider `C[C@@H]1CN(c2ccc(C#N)n3nccc23)C[C@H](CN2CC(N)C(F)(F)C2)O1` (stereo partly drawn) [Example 35, 4-[(2S,6R)-2-[(4-amino-3,3-difluoro-pyrrolidin-1-yl)methyl]-6-methyl-morpholin-4-yl]pyrazolo[1,5-a]pyridine-7-carbonitrile], for which half-maximal inhibition (IC50) required 830 nM.

In turn, `C[C@@H]1CN(c2ccc(C#N)n3nccc23)C[C@H](CN2CC3CCC2CN3)O1` (stereo partly drawn) [Example 30, 4-[(2S,6R)-2-(2,5-diazabicyclo[2.2.2]octan-2-ylmethyl)-6-methyl-morpholin-4-yl]pyrazolo[1,5-a]pyridine-7-carbonitrile] returned an IC50 of 46 nM.

Consider `C[C@@H]1CN(c2ccc(C#N)n3nccc23)C[C@H](CN2CC3(CCNCC3)C2)O1` [Example 24, 4-[(2S,6R)-2-(2,7-diazaspiro[3.5]nonan-2-ylmethyl)-6-methyl-morpholin-4-yl]pyrazolo[1,5-a]pyridine-7-carbonitrile], for which the 50% inhibitory concentration (IC50) came to 100 nM.

`C[C@@H]1CN(c2ccc(C#N)n3nccc23)C[C@H](CN2CC3CCCNC3C2)O1` (stereo partly drawn) [Example 45, 4-[(2S,6R)-2-(1,2,3,4,4a,5,7,7a-octahydropyrrolo[3,4-b]pyridin-6-ylmethyl)-6-methyl-morpholin-4-yl]pyrazolo[1,5-a]pyridine-7-carbonitrile] showed an IC50 of 250 nM.

As to `C[C@@H]1CN(c2ccc(C#N)n3nccc23)C[C@H](CN2CCN(C3CCNCC3)CC2Cc2ccccc2)O1` (stereo partly drawn) [Example 77, 4-[(2S,6R)-2-[[2-benzyl-4-(4-piperidyl)piperazin-1-yl]methyl]-6-methyl-morpholin-4-yl]pyrazolo[1,5-a]pyridine-7-carbonitrile], the midpoint of inhibition, the IC50, lay at 160 nM.

With `C[C@@H]1CN(c2ccc(C#N)n3nccc23)C[C@H](CN2CCNC3(CC3)C2)O1` [Example 40, 4-[(2S,6R)-2-(4,7-diazaspiro[2.5]octan-7-ylmethyl)-6-methyl-morpholin-4-yl]pyrazolo[1,5-a]pyridine-7-carbonitrile], the half-maximal inhibitory concentration (IC50) was 95 nM.

In the case of `C[C@@H]1CN(c2ccc(C#N)n3nccc23)C[C@H](CN2CC3(CCCNC3)C2)O1` [Example 10, 4-[(2S,6R)-2-(2,8-diazaspiro[3.5]nonan-2-ylmethyl)-6-methyl-morpholin-4-yl]pyrazolo[1,5-a]pyridine-7-carbonitrile], the half-maximal inhibitory concentration (IC50) was found to be 83 nM.

Compound `C[C@@H]1CN(c2ccc(C#N)n3nccc23)C[C@H](CN2CCC(N)(c3ccccc3)CC2)O1` [Example 73, 4-[(2S,6R)-2-[(4-amino-4-phenyl-1-piperidyl)methyl]-6-methyl-morpholin-4-yl]pyrazolo[1,5-a]pyridine-7-carbonitrile] registered an IC50 of 150 nM.
